From patent publication US9809640B2, “ApoE peptide dimers and uses thereof” (priority 2010, dated 2017)
Positions of bridges follow the written chain, without caps; N, C: chain ends. Chains are numbered I, II in the order given.

Experiments:
PP2A = assay: Phosphatase activity of PP2A immunoprecipitated from MDA-MB-231 cells; assay type: cell-based; conditions: concentrations ≧100 nM, EGF-stimulated MB231
Source text: FIG. 12A: Total PP2A activity immunoprecipitated from MDA-MB-231 cells treated with EGF and increasing concentrations of COG445. FIG. 12B: Western blot and densitometry analysis of total c-myc protein levels in U87 cells treated with the indicated concentrations of COG445 in the presence or absence of okadaic acid. FIG. 12C: Immunoprecipitation of the catalytic subunit of PP2A from MDA-MB-231 cells exposed to EGF and two different concentrations of COG445. The blot is probed for I2PP2A (SET) and PP2A catalytic subunit.
To further characterize the effect of COG445 on PP2A activity, MB231 cells were treated as above and the phosphatase activity of immunoprecipitated PP2A was measured. EGF stimulation caused a significant decrease in total PP2A activity compared to untreated serum starved cells (FIG. 12A). […] To further explore the extent of PP2A activation in response to COG445, total c-myc protein levels were determined by western blot analysis. C-myc is a substrate for PP2A and upon dephosphorylation is metabolized by ubiquitination and proteasomal degradation. In both U87 (FIG. 12B) and MB231 (data not shown) cell lines, c-myc levels decreased after a two-hour exposure to COG445 in a dose-dependent manner, reaching statistical significance at 1000 nM.

GSK-3β = GSK-3β phosphorylation in MB231 cells, Western blot; assay type: cell-based; conditions: markedly reduced at ≧100 nM
Source text: (§1) FIG. 13A: Western blot and densitometry analysis of phosphorylated m-TOR levels in MDA-MB-231 cells treated with EGF and the indicated concentrations of COG445 in the presence or absence of okadaic acid. FIG. 13B: Western blot analysis of phosphorylated GSK-3β levels in MDA-MB-231 cells treated with EGF and the indicated concentrations of COG445 in the presence or absence of okadaic acid.
(§2) Akt exerts its proliferative signal by phosphorylating protein substrates such as mTOR and GSK-3β. To examine the effects of COG445 on downstream Akt signaling in MB231 cells, mTOR activation and GSK-3β inhibition was measured by western blot analysis. […] The reduction in mTOR and GSK-3β phosphorylation was eliminated in the presence of okadaic acid, further evidence that PP2A mediates the effects of COG445 on Akt signaling.

U87MG glioblastoma cells = assay type: cell-based; conditions: U87, ~24 hours
normal B-cells = assay: Cytotoxicity on normal B-cells from volunteers; assay type: cell-based, human
Method: (§3) Blood from CLL patients was collected and CD5+/CD19+ CLL cells were isolated using the RosetteSep™ Human B-Cell Enrichment Cocktail, according to the manufacturer's instructions, and treated with COG compounds. Compounds were applied to B-CLL cells (2.5×10^5 cells/well in a 96 well plate), after which the cells were treated for 72 hours.
(§4) Normal B-cells from volunteers and B-CLL cells from patients are isolated using the RosetteSep™ Human B Cell Enrichment Cocktail according to the manufacturer's instructions. This method depletes whole blood of T cells, monocytes, and NK cells using a proprietary antibody cocktail that cross-links unwanted cells in human whole blood to multiple red blood cells (RBCs) forming immunorosettes. This increases the density of the unwanted (rosetted) cells, such that they pellet along with the free RBCs when centrifuged over a buoyant density medium such as Ficoll-Paque®. This leaves the highly enriched B-cell or B-CLL cells at the interface between Ficoll and the plasma. The antibodies in the cocktail contain anti-CD14, anti-CD2 and anti-CD16 antibodies to remove T cells, monocytes, and NK cells, respectively. The purity of these B-cell and B-CLL preparations is then determined by flow cytometry. Preparations typically average less than 2% CD3+ T-cells and less than 0.5% CD14+ monocytes. In the case of B-CLL cell isolation, we routinely obtain preparations that contain less than 1.5% normal CD19+/CD5− B-cells using this method.

[1] = Cytotoxicity on normal B-cells from volunteers; assay type: cell-based, human; conditions: human, normal B-cells from volunteers
Method: as §3, §4

mTOR = mTOR phosphorylation in MB231 cells, Western blot; assay type: cell-based; conditions: markedly reduced at ≧100 nM
Source text: as §1, §2

MDA-MB-231 cells = assay: MB231 cellular proliferation by cell count; assay type: cell-based
Method: FIG. 14A: Dose response curve of COG445 on proliferation of U87 (open circles) and MDA-MB-231 (filled circles) cells as measured by MTT reduction. FIG. 14B: Dose response curve of COG445 on proliferation of MDA-MB-231 cells as measured by cell count.
Because COG445 inhibited Akt activation and downstream signaling, we examined the effects of COG445 on cellular proliferation. Adherent MB231 and U87 cells were grown for ˜24 hours in the presence of COG445 and cellular proliferation was measured by MTT reduction. […] Furthermore, COG445 inhibited MB231 cellular proliferation as determined by cell count (FIG. 14B). Approximately 6×10^4 cells were plated in growth media (RPMI+10% FBS) for 24-hours with increasing concentrations of COG445. […] However at concentrations ≧1 μM COG445, there appears to be a loss of cells. This is partially explained by decreased proliferation, although it is possible that the rate of cellular degradation was increased in the presence of COG445.

EGFR = assay: EGF-induced EGFR activation, Western blot; assay type: cell-based; conditions: up to 1 μM, U87 and MB231, EGF
Source text: FIGS. 10A-10B. […] FIG. 10A: Western blot analysis of U87 glioblastoma cells exposed to the indicated concentrations of COG445 peptide in the presence of EGF. The blot is probed with antibodies for the activated EGF receptor (P-EGFR), total EGF receptor, activated PDK1 (P-PDK1), and total PDK1. FIG. 10B: Western blot and densitometry analysis of Akt activation induced by EGF in U87 cells in the presence of increasing concentrations of COG445.
Akt signaling is often dysregulated in cancers thereby promoting cellular survival and proliferation. […] Given the effect of ApoE peptides on other inflammatory pathologies, we investigated the effect of an ApoE peptide dimer on Akt signaling in breast and brain cancer cells. A disulfide dimer of COG112 (SEQ ID NO: 1) was prepared as described in Example 1 (COG445). Adherent breast cancer cells, MDA-MB-231 (MB231), or glioblastoma cells, U87-MG (U87), were serum starved overnight and then exposed to COG445 for 2 hours before stimulating with epidermal growth factor (EGF) for 5 minutes. […] EGFR activation results in the activation of the PI3K/Akt signaling pathway, which is mediated by PDK1 activation.

I: Ac-RQIKIWFQNRRMKWKKCLRVRLASHLRKLRKRLL-NH2 / II: Ac-RQIKIWFQNRRMKWKKCLRVRLASHLRKLRKRLL-NH2 (disulfide I:17-II:17) [COG445, COG112-C-C-COG112]
PP2A activity (PP2A): significant (P<0.01) increase | GSK-3β phosphorylation upon EGF stimulation (GSK-3β): dose-dependent decrease | proliferation by MTT reduction (U87MG glioblastoma cells): dose-dependent decrease | EC50 normal B-cells relative to CLL cells (normal B-cells): ~200 fold | EC50 at 72 h [1]: > 10 µM | mTOR phosphorylation upon EGF stimulation (mTOR): dose-dependent decrease | cellular proliferation by cell count (MDA-MB-231 cells; 0.1 μM): slight decrease | cellular proliferation by cell count (MDA-MB-231 cells; 24 hours): inhibited | cell count (MDA-MB-231 cells; ≧1 μM): loss of cells | EGFR activation (tyrosine 1045 phosphorylation) (EGFR): did not alter
